For 10 molecules, Activity results are on record in ChEMBL document CHEMBL1135076, “Leishmanicidal activity of some aliphatic diamines and amino-alcohols” (Bioorg Med Chem Lett, 2002).

What all share (format): functional, organism-based
Test [1] relates to Leishmania donovani. The test is described as follows: In vitro for leishmanicidal activity against Leishmania donovani (PP75) at the concentration of 50 ug/mL.
Test [2] concerns Leishmania braziliensis. Briefly: In vitro for leishmanicidal activity against Leishmania brasiliensis (2903) at the concentration of 100 ug/mL.
Test [3] relates to Leishmania amazonensis. The test is described as follows: In vitro for leishmanicidal activity against Leishmania amazonensis (PH8) at the concentration of 50 ug/mL.
Test [4] has as its system Leishmania amazonensis. Briefly: Tested in vitro for leishmanicidal activity against Leishmania amazonensis (PH8) at the concentration of 25 ug/mL; ++ indicates 80-90% lysis of parasites.
Test [5] has as its system Leishmania donovani. Briefly: In vitro for leishmanicidal activity against Leishmania donovani (PP75) at the concentration of 100 ug/mL.
In test [6] the test system is Leishmania amazonensis. The test is described as follows: In vitro for leishmanicidal activity against Leishmania amazonensis (PH8) at the concentration of 100 ug/mL.
Test [7] has as its system Leishmania donovani. Briefly: Tested in vitro for leishmanicidal activity against Leishmania donovani (PP75) at the concentration of 25 ug/mL;++ indicates 80-90% lysis of parasites.
The subject of test [8] is Leishmania donovani. Briefly: In vitro for leishmanicidal activity against Leishmania donovani (PP75) at the concentration of 10 ug/mL.
Test [9] has as its system Leishmania braziliensis. Briefly: Tested in vitro for leishmanicidal activity against Leishmania brasiliensis (2903) at the concentration of 25 ug/mL;++ indicates 80-90% lysis of parasites.
The test system of test [10] is Leishmania amazonensis. Briefly: In vitro for leishmanicidal activity against Leishmania amazonensis (PH8) at the concentration of 10 ug/mL.
The test system of test [11] is Leishmania braziliensis. Briefly: Tested in vitro for leishmanicidal activity against Leishmania brasiliensis (2903) at the concentration of 10 ug/mL;+ indicates Less than 70% lysis of parasites.
Test [12] deals with Leishmania braziliensis. Briefly: Tested in vitro for leishmanicidal activity against Leishmania brasiliensis (2903) at the concentration of 25 ug/mL;+ indicates Less than 70% lysis of parasites.
In test [13] the test system is Leishmania donovani. The test is described as follows: Tested in vitro for leishmanicidal activity against Leishmania donovani (PP75) at the concentration of 25 ug/mL;+ indicates Less than 70% lysis of parasites.
The test system of test [14] is Leishmania amazonensis. Briefly: Tested in vitro for leishmanicidal activity against Leishmania amazonensis (PH8) at the concentration of 50 ug/mL; ++ indicates 80-90% lysis of parasites.
The test system of test [15] is Leishmania braziliensis. Briefly: In vitro for leishmanicidal activity against Leishmania brasiliensis (2903) at the concentration of 10 ug/mL.
Test [16] concerns Leishmania donovani. Briefly: Tested in vitro for leishmanicidal activity against Leishmania donovani (PP75) at the concentration of 50 ug/mL;++ indicates 80-90% lysis of parasites.
The subject of test [17] is Leishmania donovani. The test is described as follows: Tested in vitro for leishmanicidal activity against Leishmania donovani (PP75) at the concentration of 10 ug/mL.
For test [18], the system named is Leishmania braziliensis. The test is described as follows: Tested in vitro for leishmanicidal activity against Leishmania brasiliensis (2903) at the concentration of 50 ug/mL;++ indicates 80-90% lysis of parasites.
Test [19] has as its system Leishmania amazonensis. The test is described as follows: Tested in vitro for leishmanicidal activity against Leishmania amazonensis (PH8) at the concentration of 25 ug/mL; + indicates less than 70% lysis of parasites.
Test [20] concerns Leishmania braziliensis. Briefly: Tested in vitro for leishmanicidal activity against Leishmania brasiliensis (2903) at the concentration of 50 ug/mL;+ indicates Less than 70% lysis of parasites.
Test [21] concerns Leishmania donovani. The test is described as follows: Tested in vitro for leishmanicidal activity against Leishmania donovani (PP75) at the concentration of 50 ug/mL;+ indicates Less than 70% lysis of parasites.
The subject of test [22] is Leishmania amazonensis. The test is described as follows: Tested in vitro for leishmanicidal activity against Leishmania amazonensis (PH8) at the concentration of 50 ug/mL; + indicates less than 70% lysis of parasites.
The subject of test [23] is Leishmania amazonensis. Briefly: In vitro for leishmanicidal activity against Leishmania amazonensis (PH8) at 25 ug/mL; No lysis of parasites.
Test [24] relates to Leishmania braziliensis. The test is described as follows: In vitro for leishmanicidal activity against Leishmania brasiliensis (2903) at the concentration of 25 ug/mL.
For test [25], the system named is Leishmania braziliensis. The test is described as follows: In vitro for leishmanicidal activity against Leishmania brasiliensis (2903) at the concentration of 50 ug/mL.
Test [26] relates to Leishmania donovani. The test is described as follows: Tested in vitro for leishmanicidal activity against Leishmania donovani (PP75) at the concentration of 100 ug/mL;+ indicates Less than 70% lysis of parasites.
The test system of test [27] is Leishmania amazonensis. Briefly: Tested in vitro for leishmanicidal activity against Leishmania amazonensis (PH8) at the concentration of 100 ug/mL; + indicates Less than 70% lysis of parasites.
Test [28] deals with Leishmania donovani. The test is described as follows: In vitro for leishmanicidal activity against Leishmania donovani (PP75) at the concentration of 25 ug/mL.
The subject of test [29] is Leishmania braziliensis. Briefly: Tested in vitro for leishmanicidal activity against Leishmania brasiliensis (2903) at the concentration of 100 ug/mL; + indicates Less than 70% lysis of parasites.
Test [30] relates to Leishmania amazonensis. The test is described as follows: Tested in vitro for leishmanicidal activity against Leishmania amazonensis (PH8) at the concentration of 10 ug/mL; ++ indicates 80-90% lysis of parasites.
The subject of test [31] is Leishmania donovani. Briefly: Tested in vitro for leishmanicidal activity against Leishmania donovani (PP75) at the concentration of 10 ug/mL;++ indicates 80-90% lysis of parasites.
Test [32] relates to Leishmania braziliensis. The test is described as follows: Tested in vitro for leishmanicidal activity against Leishmania brasiliensis (2903) at the concentration of 10 ug/mL;++ indicates 80-90% lysis of parasites.
Test [33] deals with Leishmania amazonensis. Briefly: Tested in vitro for leishmanicidal activity against Leishmania amazonensis (PH8) at the concentration of 100 ug/mL; + indicates less than 70% lysis of parasites.
The test system of test [34] is Leishmania braziliensis. Briefly: Tested in vitro for leishmanicidal activity against Leishmania brasiliensis (2903) at the concentration of 100 ug/mL;++ indicates 80-90% lysis of parasites.

With `CCCCCCCCCCCCCCC(N)CNC(=O)CCCC(=O)O` (stereo not drawn), the Activity result in the test on Leishmania donovani [1] was “+”; with Leishmania braziliensis [2] it was “+”; in the test on Leishmania amazonensis [3], “+”; in the test with Leishmania amazonensis [4], 80-90% lysis of parasites; with Leishmania donovani [5], “+”; with Leishmania amazonensis [6] it was “+”. For the same molecule, the Activity in the test with Leishmania donovani [7], with Leishmania donovani [8], with Leishmania braziliensis [9], with Leishmania amazonensis [10] and in the test with Leishmania braziliensis [11] was 80-90% lysis of parasites in each case.
For the molecule `CCCCCCCCCCCCCCC(N)CN(CC(=O)O)CC(=O)O` (stereo not drawn), the Activity with Leishmania braziliensis [12] was 80-90% lysis of parasites; with Leishmania braziliensis [2] it was “+”; with Leishmania donovani [5] it was “+”; in the test with Leishmania donovani [13] it was 80-90% lysis of parasites; with Leishmania amazonensis [14], 80-90% lysis of parasites; in the test on Leishmania amazonensis [6], “+”. Also, the Activity in the test on Leishmania braziliensis [15], in the test on Leishmania donovani [16], in the test with Leishmania donovani [17], in the test on Leishmania braziliensis [18], in the test with Leishmania amazonensis [10] and in the test on Leishmania amazonensis [19] was 80-90% lysis of parasites in each case.
Take `CCCCCCCCCCCCCCC(N)CNCC(=O)OCC` (stereo not drawn): the Activity entry was “Less than 70% lysis of parasites” with Leishmania braziliensis [12]; “+” in the test with Leishmania braziliensis [2]; “Less than 70% lysis of parasites” in the test with Leishmania braziliensis [20]; “+” in the test with Leishmania donovani [5]; “Less than 70% lysis of parasites” in the test with Leishmania donovani [13]; “+” with Leishmania amazonensis [6]. In addition, the Activity entry in the test with Leishmania donovani [21], in the test with Leishmania donovani [8], in the test with Leishmania amazonensis [22], in the test with Leishmania amazonensis [10], with Leishmania amazonensis [19] and in the test on Leishmania braziliensis [11] was “Less than 70% lysis of parasites” in each case.
Take `CCCCCCCCCCCCCCC(N)COCc1ccccc1` (stereo not drawn): the Activity result in the test on Leishmania amazonensis [23], in the test with Leishmania donovani [1], with Leishmania amazonensis [3], in the test with Leishmania braziliensis [24], in the test on Leishmania braziliensis [25] and in the test with Leishmania braziliensis [15] was “Less than 70% lysis of parasites” in each case. The Activity entry with Leishmania donovani [17], with Leishmania donovani [26], with Leishmania amazonensis [27], with Leishmania donovani [28], in the test on Leishmania amazonensis [10] and in the test with Leishmania braziliensis [29] was “Less than 70% lysis of parasites” each time.
As to `CCCCCCCCCCCCCCC(CN(CC)CC)NC(=O)OC(C)(C)C` (stereo not drawn), the Activity was 80-90% lysis of parasites with Leishmania amazonensis [30]; 80-90% lysis of parasites in the test with Leishmania donovani [31]; “+” in the test on Leishmania donovani [1]; 80-90% lysis of parasites in the test with Leishmania braziliensis [32]; “+” with Leishmania braziliensis [2]; “+” in the test with Leishmania amazonensis [3]. Besides, the Activity entry in the test on Leishmania donovani [5] and in the test on Leishmania amazonensis [6] was “+” each time.
For the molecule `CCCCCCCCCCCCCCC(CNCC)NC(=O)OC(C)(C)C` (stereo not drawn), the Activity entry with Leishmania donovani [1] is “+”; in the test on Leishmania braziliensis [32] it was 80-90% lysis of parasites; in the test with Leishmania braziliensis [2] it was “+”; in the test on Leishmania amazonensis [3] it was “+”; in the test with Leishmania donovani [5], 80-90% lysis of parasites; with Leishmania donovani [13] it was 80-90% lysis of parasites. Besides, the Activity entry is “+” in the test on Leishmania amazonensis [6], 80-90% lysis of parasites in the test on Leishmania donovani [8], 80-90% lysis of parasites in the test with Leishmania amazonensis [10] and 80-90% lysis of parasites in the test on Leishmania amazonensis [19].
On to `CCCCCCCCCCCCCCC(=O)NC(CCCCCCCCCCCCCC)COC(=O)CCCCCC` (stereo not drawn), for which the Activity result in the test on Leishmania amazonensis [23], in the test with Leishmania donovani [1], with Leishmania amazonensis [3], with Leishmania braziliensis [24], in the test with Leishmania braziliensis [25] and with Leishmania braziliensis [15] was “Less than 70% lysis of parasites” in each case. Further, the Activity entry with Leishmania donovani [17], in the test on Leishmania donovani [26], in the test on Leishmania amazonensis [33], in the test on Leishmania donovani [28], with Leishmania amazonensis [10] and in the test on Leishmania braziliensis [29] was “Less than 70% lysis of parasites” each time.
Regarding `CCCCCCCCCCCCCCC(CN(CC(=O)OCC)CC(=O)OCC)NC(=O)OC(C)(C)C` (stereo not drawn), the Activity with Leishmania amazonensis [23], with Leishmania donovani [1], in the test on Leishmania amazonensis [3], with Leishmania donovani [5], in the test on Leishmania braziliensis [24] and in the test with Leishmania braziliensis [25] was 80-90% lysis of parasites in each case. For the same molecule, the Activity with Leishmania amazonensis [6], in the test with Leishmania braziliensis [15], in the test on Leishmania donovani [17], in the test with Leishmania braziliensis [34], in the test on Leishmania donovani [28] and in the test with Leishmania amazonensis [10] was 80-90% lysis of parasites throughout.
With `CCCCCCCCCCCCCCC(N)CNCC` (stereo not drawn), the Activity in the test with Leishmania braziliensis [12] is 80-90% lysis of parasites; in the test on Leishmania braziliensis [2] it was “+”; in the test with Leishmania donovani [5] it was “+”; with Leishmania donovani [13], 80-90% lysis of parasites; in the test on Leishmania amazonensis [14] it was 80-90% lysis of parasites; in the test on Leishmania amazonensis [6], “+”. For the same molecule, the Activity in the test on Leishmania donovani [16], with Leishmania braziliensis [18], with Leishmania donovani [8], in the test with Leishmania amazonensis [10], in the test with Leishmania amazonensis [19] and in the test on Leishmania braziliensis [11] was 80-90% lysis of parasites each time.
`CCCCCCCCCCCCCCC(COCc1ccccc1)NC(=O)OC(C)(C)C` (stereo not drawn): the Activity entry in the test with Leishmania amazonensis [23], in the test with Leishmania donovani [1], in the test with Leishmania amazonensis [3], with Leishmania braziliensis [24], in the test on Leishmania braziliensis [25] and in the test with Leishmania braziliensis [15] was “Less than 70% lysis of parasites” in each case. Further, the Activity entry in the test on Leishmania donovani [17], in the test on Leishmania donovani [26], in the test on Leishmania amazonensis [27], in the test with Leishmania donovani [28], in the test with Leishmania amazonensis [10] and in the test on Leishmania braziliensis [29] was “Less than 70% lysis of parasites” each time.
